Experimental data: patent publication US4585589A, “Water-soluble alkanoyloxy and alkoxycarbonyloxy rifampicin derivatives, process for its preparation, intermediates, and its pharmaceutical composition as antibacterials” (Gruppo Lepetit S.p.A., priority 1983, dated 1986)
Converted amounts (≈) assume the structure as drawn. Where two headings read alike, the source gives them in different places.

What was measured:
[1] = solubility in water containing 2% ascorbic acid (solution A) and in water containing 2% ascorbic acid and 10% propylene glycol (solution B), with pH of the resulting solutions; type: physicochemical
Procedure: The compounds of the present invention show a marked solubility in water as well as in mixtures of water with other pharmaceutically acceptable solvents miscible with water. In particular, the solubility of the compounds of the present invention in comparison with rifampicin was assayed in water containing 2% ascorbic acid (solution A) and in water containing 2% ascorbic acid and 10% propylene glycol (solution B) and the pH of the resulting solutions was recorded.

[2] = system: Staphylococcus aureus Tour; assay: antibacterial activity in mice infected with Staphylococcus aureus Tour; type: in vivo; conditions: sc, values in parentheses as printed, read-out: ED50 against S. aureus Tour
Procedure: As expected, this slight delay in hydrolysis in vivo reflects in a median effective dose (ED50) for the compounds of formula I somewhat higher than for rifampicin. In particular the antibacterial activity of the compounds of the present invention was tested in mice infected with Staphylococcus aureus Tour.

[3] = cited from earlier work
[4] = solution A: water containing 2% ascorbic acid
[5] = water with 2% ascorbic acid, solution A: water containing 2% ascorbic acid, read-out: solubility

CO[C@H]1/C=C/O[C@@]2(C)Oc3c(C)c(OC(C)=O)c4c(O)c(c(/C=N/N5CCN(C)CC5)c(O)c4c3C2=O)NC(=O)/C(C)=C\C=C\[C@H](C)[C@H](O)[C@@H](C)[C@@H](O)[C@@H](C)[C@H](OC(C)=O)[C@@H]1C [Example 4, 3-[[(4-methyl-1-piperazinyl)imino]methyl]rifamycin 8-acetate]
solubility ([1]; organic solvent or mixture, solution B: water containing 2% ascorbic acid and 10% propylene glycol, read-out: solubility): 150 mg/mL (≈ 173 mM) | pH of the resulting solution [1, 4]: 4.0 | pH of the resulting solution ([1]; solution B: water containing 2% ascorbic acid and 10% propylene glycol): 4.2 | solubility [1, 5]: 100 mg/mL (≈ 116 mM) | ED50 [2]: 0.35 mg/kg

CCC(=O)Oc1c(C)c2c3c4c(O)c(/C=N/N5CCN(C)CC5)c(c(O)c14)NC(=O)/C(C)=C\C=C\[C@H](C)[C@H](O)[C@@H](C)[C@@H](O)[C@@H](C)[C@H](OC(C)=O)[C@H](C)[C@@H](OC)/C=C/O[C@@](C)(O2)C3=O [Example 5, 3-[[(4-methyl-1-piperazinyl)imino]methyl]rifamycin 8-pro-panoate]
ED50 [2]: 1.2 mg/kg

CCOC(=O)Oc1c(C)c2c3c4c(O)c(/C=N/N5CCN(C)CC5)c(c(O)c14)NC(=O)/C(C)=C\C=C\[C@H](C)[C@H](O)[C@@H](C)[C@@H](O)[C@@H](C)[C@H](OC(C)=O)[C@H](C)[C@@H](OC)/C=C/O[C@@](C)(O2)C3=O [Example 6, 3-[[(4-methyl-1-piperazinyl)imino]methyl]rifamycin 8-ethylcarbonate]
ED50 [2]: 0.76 mg/kg

CO[C@H]1/C=C/O[C@@]2(C)Oc3c(C)c(OC(C)=O)c4c(O)c(c(/C=N/N5CCN(C)CC5)c(OC(C)=O)c4c3C2=O)NC(=O)/C(C)=C\C=C\[C@H](C)[C@H](O)[C@@H](C)[C@@H](O)[C@@H](C)[C@H](OC(C)=O)[C@@H]1C [Example 7]
pH of the resulting solution [1, 4]: 4.5 | solubility [1, 5]: > 300 mg/mL | ED50 [2]: 1.5 mg/kg

CO[C@H]1/C=C/O[C@@]2(C)Oc3c(C)c(O)c4c(O)c(c(/C=N/N5CCN(C)CC5)c(O)c4c3C2=O)NC(=O)/C(C)=C\C=C\[C@H](C)[C@H](O)[C@@H](C)[C@@H](O)[C@@H](C)[C@H](OC(C)=O)[C@@H]1C [rifampicin, 3-[[(4-methyl-1-piperazinyl)imino]methyl]rifamycin]
pH of the resulting solution ([1]; in either solution (A or B)): 3.5-3.6 | solubility ([1]; water with 2% ascorbic acid): < 50 mg/mL | solubility in various aqueous media [3]: lower than 20 mg/ml
